Values quoted from earlier work, collected in patent US10792293B2, “Topical nanodrug formulation” (priority 2015, dated 2020).

solubility in water: about 2.8 mg/100 ml
Structure (SMILES): CC(=O)S[C@@H]1CC2=CC(=O)CC[C@]2(C)[C@H]2CC[C@@]3(C)[C@@H](CC[C@@]34CCC(=O)O4)[C@H]12 [Spironolactone, spironolactone]
